The results in this text go back to patent US20140038920A1, “TFEB PHOSPHORYLATION INHIBITORS AND USES THEREOF” (FONDAZIONE TELETHON, priority 2011, published 2014).

For assay [1], the system named is TFEB. The assay is described as follows: High content TFEB-GFP nuclear translocation assay. It counts as cell-based. The conditions noted are these: Homo sapiens, TFEB-GFP HeLa cells.
Assay [2] deals with glycosaminoglycan (GAG) accumulation in MSD NSCs. The assay is described as follows: Alcian blue staining of GAGs in differentiated NSCs from MSD mice (FIG. 22). The conditions noted are these: glia-differentiated MSD NSCs, 10 nM, 24 hours, versus DMSO. The class given is cell-based, mouse. How it is done: After 24 hours, the GAG content was determined by alcian blue (AB) staining. Both torins were able to reduce GAG staining in MSD treated cells as compared to DMSO treated cells.
Neuronal progenitor cells were isolated from cortices of WT and MSD pups (P0) by tissue homogenization using the neural tissue dissociation kit and separation using magnetic sorting of cells expressing the stem cell marker prominin-1 (Miltenyi Biotec Srl). Neuronal progenitor cells were maintained in ESGRO complete medium (Hyclone) in the presence of EGF and FGF2 growth factors (Prepotech). Where indicated, neural stem cells (NSCs) were differentiated by removing growth factors and incubate in ESGRO medium containing 2% of serum for at least 48 h.
Neuronal progenitor cells were isolated from cortices of WT and MSD pups (P0) by using standard protocols. Neuronal stem cells (NSCs) were fixed in Methacarn (60% Methanol; 10% Acetic Acid; 30% Chloroform) for 15 min at RT. After washing the cells were stained for 3 hours in 1% alcian blue pH 2.5, rinsed in 0.3% acetic acid and water and mounted in 100% for visualization.

The subject of assay [3] is ERK. The experiment in a line: p-ERK levels in primary hepatocytes (FIG. 21A). The class given is cell-based, mouse. The conditions noted are these: primary hepatocytes treated overnight. From the text: Subsequently, cells were lysed and protein extracts were immunoblotted with the indicated antibodies. […] Quantitative PCR (qPCR) of TFEB target genes in primary hepatocytes from control (flox/flox) and Tcfeb−/− (flox/flox; alb-Cre) mice. […] The expression levels are shown as % increased expression of the treated versus the corresponding untreated samples. Values represent means±s.d. of three independent hepatocyte preparations (three mice/genotype). Student's t-test (two tailed) *P-value ≦0.05.

The subject of assay [4] is TFEB. The experiment in a line: TFEB nuclear localization in starved HeLa cells overexpressing TFEB, re-stimulated with media plus supplements or inhibitors (nuclear fractionation, Flag blot, immunofluorescence). The conditions noted are these: starved cells stimulated with normal medium supplemented with kinase inhibitor (FIG. 2g, 11b). It counts as cell-based. The source says: (A) Scatter Plot graphs displaying the logarithmic value of the fold change differences in the relative expression levels of 51 autophagy-related genes in HeLa cells cultured in different conditions. X-axis=control group. Y-axis=treated group. Circles represent genes with increased (red) or decreased (green) fold change. Comparisons were as indicated. (B) Chromatin immunoprecipitation (ChIP) analysis. […] Values were normalized to the input and plotted as relative enrichment over a mock control. Experiments were performed in triplicate. (C) qPCR analysis of TFEB-target gene expression in normal, starved, and in TFEB-siRNA starved cells. GAPDH and HPRT represents housekeeping genes, while ATG10, ATG9A and ATG4D represent control genes (non-TFEB target genes). (D-F) HeLa cells stably overexpressing TFEB were left untreated or nutrient starved for 4 h. (D) Five fields containing 50-100 cells/each were analyzed for TFEB nuclear localization. […] (E) Cells were subjected to nuclear/cytosolic fractionation and blotted with Flag antibody. H3 and tubulin were used as nuclear and cytosolic markers, respectively. (F) Nuclear fractions were blotted with Flag and H3 (loading control) antibodies. (G) Western blot analysis of Flag, tubulin and H3 in nuclear extracts prepared from normal, starved and starved/stimulated with normal media cells for 1 h (normal) or pretreated with AP-2 (AKT inhibitor), Rapamycin (mTOR inhibitor) and U0126 (MEK inhibitor) 1 h prior to media stimulation. Total extracts were used to verify the efficiency of the inhibitors. […] Starvation was performed where indicated. (All error bars represent standard deviations. T-test (unpaired) p value (*)<0.05, (**)<0.01)
Cytosolic and nuclear fractions were subjected to Flag immunoblotting. […] Error bars represent standard deviations.
Cells were seeded at 50% of confluence in 6 well dishes and serum starved overnight (ON). Normal medium was added the following day either in presence of DMSO or kinase inhibitors. Subcellular fractionation was carried out as previously reported.
To identify the mechanism of starvation-induced activation of TFEB, the applicants analyzed its subcellular localization and post-translational modifications in starved cells.

The mark [5] stands for this setting: 3 h, ten concentrations 2.54 nM to 50 μM (FIG. 19D), read-out: EC50, TFEB nuclear translocation.
[6] abbreviates: mobilization of cytosolic TFEB to the nucleus, 3 h at 37° C. in RPMI, ten concentrations 50 μM to 2.54 nM, 4 runs, read-out: Average EC50.

Like-named read-outs stand apart in the source and are kept apart here.

Consider `CCC(=O)N1CCN(c2ccc(-n3c(=O)ccc4cnc5ccc(-c6cnc7ccccc7c6)cc5c43)cc2C(F)(F)F)CC1` [TORIN 1], for which the figures for the EC50 in assay [1] (setting [5]) and in assay [1] (setting [6]) were 0.148 µM and less than 7 µM, respectively. In assay [2], the “alcian blue-stained GAGs” value is reported as “striking reduction”. Besides, the “levels of p-ERK” value in assay [3] is “unaffected”.
For the compound `CO[C@H]1C[C@@H]2CC[C@@H](C)[C@@](O)(O2)C(=O)C(=O)N2CCCC[C@H]2C(=O)O[C@H]([C@H](C)C[C@@H]2CC[C@@H](O)[C@H](OC)C2)CC(=O)[C@H](C)/C=C(\C)[C@@H](O)[C@@H](OC)C(=O)[C@H](C)C[C@H](C)/C=C/C=C/C=C/1C` [RAPAMYCIN], the EC50 was 104 µM in assay [1] (setting [5]) and greater than 15 µM in assay [1] (setting [6]). For the same compound, the TFEB nuclear localization result in assay [4] is listed as “no effect”.
